Results taken from EP0407582A1, “DERIVATIVES OF TRICHLOROPHOSPHAS[…] INSECTICIDAL, VIRICIDAL, HEMATOCIDAL, FUNGICIDAL AND OVOCIDAL PREPARATIONS BASED ON THEM” (priority 1989, dated 1990).
Like-named read-outs stand apart in the source and are kept apart here.

Experiments:
mice and rats = conditions: cited from earlier work
domestic flies [1] = assay: Insecticidal activity, laboratory test in gauze boxes; type: in vivo; conditions: 0.25% solution in 5% aqueous glucose solution; death rate estimated in 48 - 72 hours
Method: An insecticidal composition based thereon, which was a 0.25% solution of this compound in a 5% aqueous glucose solution, was prepared. The laboratory and large-scale tests of the activity of an insecticidal composition of the invention was conducted on domestic flies. for laboratory tests into the gauze-made boxes (10x10 cm, 6 boxes), there were placed 6-7-day flies of both sexes by 50 individuals per each box. Into 5 boxes there were placed Petri dishes containing the insecticidal composition of the invention. The death rate of flies was estimated-in 48 - 72 hours. A Petri dish containing a 5% aqueous solution of glucose was placed into the control box. The insecticidal activity of the composition, according to the invention, was tested in comparison with a known insecticidal composition containing 0,0-dimethyl-/1-hydroay-2,2-trichloroethyl/phosphonate.

domestic flies [2] = assay: Insecticidal activity, large-scale test in living and industrial premises; type: in vivo; conditions: 0.25% solution with 5% glucose solution, 2-3 dishes per 20 m2; 72 hours
Method: The large-scale tests of the activity of the insecticidal composition, according to the invention, was conducted on domestic flies in living and industrial premises. Petri dishes containing a 0.25% aqueous solution of the insecticide, according to the invention, added with a 5% glucose solution, were put at a rate of 2-3 dishes per 20 m2. The .activity of the composition of the invention was estimated by a direct count of dead insects in 72 hours or by using the adhesive tapes, counting the number of flies on the tape prior and after carrying out the test.

[3] = test system: invasion larvae of a root-knot nematode; assay: Nematocidal activity, laboratory test; type: in vivo; conditions: Meloidogyne javanica; 1% solution in water; 24 hrs; read-out: Larva death, % Tests laboratory
Method: (§1) The process was carried out in manner similar to that described in Example 3. […] The insecticidal activity was tested in a manner similar to that described in Example 3. A nematocidal composition based on the compound.-was prepared which was its 1% solution in water. A nematocidal effect of the composition was tested in laboratory conditions to the invasion larvae of a root-knot nematode. For testing it, one drop of a suspension containing 100 invasion larvae of root-knot nematodes was placed onto the cover glasses having cells. Thereafter, one drop of the nematocidal composition of the invention was put thereto. One drop of distilled water instead of the test composition was placed into the control cell..The glasses with test and control cells were put on a moisten ashless filter of a Petri dish, and 24 hrs later the killed nematodes were registered. The tests were repeated three times. The nematocidal activity of the composition, according to the invention was tested in comparison with the known nematocidal preparation containing 0,0-dimethyl-0-2,2/dichlorovinyl/phosphate. The field tests were carried out at the 5 m^2 plots affected by tomato nematodes. For testing it, the plots were treated with the nematocidal composition of the invention and the known nematocidal composition.

pig ascarid ovigerms = assay: Ovocidal activity on watch glasses, 2% solution; type: in vivo; conditions: concentration 2 %
Method: An ovocidal composition based on this compound was prepared in the form of a 2% solution thereof in distilled water. An ovocidal activity of the composition, according to the invention, was tested as follows.
A drop of a suspension containing at least 1.000 ascarid ovigerms was placed onto the watch glasses followed by adding thereto by 1 ml of the composition of the invention. Thereafter the watch glasses were put them into a humid chamber of a thermostat at a temperature of 24 - 26 °C. In every […] the watch glasses with ascarid ovigerms and with the composition of the invention were withdrawn from the thermostat and washed with distilled water for 2-3 times.
Then, the washed ascaride ovigerms were cultured for 30 days at a temperature of 24 - 26 °C. To determine the number of dead and viable ovigerms 200 ova were visualized under a microscope in every 3-5 days. Their death was determined by lack of the development of ovigerms up to the stage of larva and the.presence of destructive morphological changes for 30 days. An ovocidal activity of known composition based.on carbathion was determined by the same procedure. Control was carried out under the same conditions by adding a physiological saly solution. The death percentage of ova was estimated as a mean value of three results with the correction for death of ovigerms in the control and in comparison with the known compositions.

poliomyelitis virus = assay: microbe, parasite or virus in culture; type: cell-based, poliomyelitis-II virus; conditions: concentration 1 %
[4] = Solubility in water and organic solvents; type: physicochemical; conditions: qualitative, solvents named
[5] = test system: leaves of tomatoes and cucumbers; assay: Phytotoxicity of the nematocidal composition; type: in vivo; conditions: 1% solution in water
hepatitis B virus = assay: Virucidal activity, suspension method under protein loading, counter-current immunoelectrophoresis; conditions: concentration 1 %
tomato nematodes = assay: Nematocidal activity, field test on 5 m2 plots; type: in vivo; conditions: 1% solution in water, read-out: Larva death, % Tests field
Method: as §1

influenza A virus = assay: microbe, parasite or virus in culture; parameters: species or system strain of influenza A1 virus; conditions: concentration 1 %
pig ascaride ovigerms = assay: Ovocidal activity on watch glasses, 3% solution, laboratory test; type: in vivo; conditions: Sus scrofa, read-out: % Death of ovigerms Tests laboratory
Method: A drop of a suspension containing at least 1,000 ascarid ovigerms was placed onto watch glasses followed by adding one droplet of a 3% solution of the composition of the invention. Thereafter, they were put into a humid chamber of a thermostat at a temperature of 24-26 °C. In every 24 hours during 3 days the watch glasses with ascarid ova and the composition of the invention were withdrawn from the thermostat and washed with distilled water 2-3 times.
Then, the washed ascarid ovigerms were incubated for 30 days at a temperature of 24 - 26-°C. To determine the number of dead and viable ova, 200 ovigerms were observed by means of a microscope every 3 - 5 days. The death was determined by lack of ova development for 30 days up to the stage of a mobile larva and the presence of destructive morphological changes: shrinkage and deformation of embryos, rupture of shells. The known composition - carbathion was tested under the same conditions by adding a solvent. The percentage death of ova was estimated as a mean value of three results with a correction for ova death in the control and_in-comparison with the known composition.

helminthic ova = assay: Ovocidal activity, large-scale disinfection of ambient objects; conditions: 3% aqueous solution; ambient objects (equipment, tableware, hands); read-out: % Death of ovigerms Tests large-scale
Method: Based on this compound, there was prepared the ovocidal composition in the form of 3% solution thereof. The ovocidal activity of the composition, according to the invention, was tested disinfection of ambient objects (equipment, tableware, hands). For this purpose, a 3% aqueous solution of the compound, according to the invention, was used for treating said objects. The. efficiency of the ovocidal action was determined by the number of helminthic ova in washings from the ambient objects before and after treating them with the ovocidal composition of the invention.

[6] = 24 h, read-out: Death of ascarid ovigerms (%) in 24 h
[7] = 48 h, read-out: Death of ascarid ovigerms (%) in 48 h

Compound	Death of flies, % Tests laboratory (domestic flies [1])	Death of flies, % Tests large-scale (domestic flies [2])	killing at 1 % [3]	killing at 2 % (pig ascarid ovigerms; [6])	killing at 2 % (pig ascarid ovigerms; [7])	solubility [4]	mortality at 1 % (tomato nematodes)	killing at 3 % (pig ascaride ovigerms)	killing at 3 % (helminthic ova)	further results
0,0-dimethyl(1-hydroxy-2,2,2-trichloroethyl) phosphonate [Known insecticidal composition]	85%	83%								LDSO (mice and rats): 225 to 1200 mg/kg
O=C(N=P(OC(CCl)c1ccccc1)(OC(CCl)c1ccccc1)OC(CCl)c1ccccc1)c1ccccc1 (stereo not drawn) [Example 3, tris/2-chloro-1-phenylethoxy/phosphazobenzoyl]	100%	100%	100%	68.1%	93.4%	soluble in water, alcohols, acetone, benzene, toluene	100%			killing at 2 % (pig ascarid ovigerms; 72 h, read-out: Death of ascarid ovigerms (%) in 72 h): 100%; killing at 1 % (poliomyelitis virus; 10 min, 10 min, read-out: Death of viruses (%) under exposure, Poliomyelitis, 10 min): 20%; killing at 1 % (poliomyelitis virus; 0.5 h, 30 min, read-out: Death of viruses (%) under exposure, Poliomyelitis, 30 min): 50%; killing at 1 % (poliomyelitis virus; 1 h, 60 min, read-out: Death of viruses (%) under exposure, Poliomyelitis, 60 min): 70%; phytotoxic effects on the leaves of tomatoes and cucumbers [5]: no phytotoxic effects; killing at 1 % (hepatitis B virus; 0.25 h, 15 min, read-out: Death of viruses (%) under exposure, Hepatitis B, 15 min): 75%; killing at 1 % (hepatitis B virus; 0.5 h, 30 min, read-out: Death of viruses (%) under exposure, Hepatitis B, 30 min): 100%; killing at 1 % (hepatitis B virus; 1 h, 60 min, read-out: Death of viruses (%) under exposure, Hepatitis B, 60 min): 100%; killing at 1 % (influenza A virus; 0.25 h, 15 min, read-out: Death of viruses (%) under exposure, Influenza A, 15 min): 30%; killing at 1 % (influenza A virus; 0.5 h, 30 min, read-out: Death of viruses (%) under exposure, Influenza A, 30 min): 50%; killing at 1 % (influenza A virus; 1 h, 60 min, read-out: Death of viruses (%) under exposure, Influenza A, 60 min): 100%
O=C(N[C@H](COP(=NC(=O)C(Cl)(Cl)Cl)(OC[C@@H](NC(=O)C(Cl)Cl)[C@H](O)c1ccc([N+](=O)[O-])cc1)OC[C@@H](NC(=O)C(Cl)Cl)[C@H](O)c1ccc([N+](=O)[O-])cc1)[C@H](O)c1ccc([N+](=O)[O-])cc1)C(Cl)Cl [Example 7, d(-)--threo-3-para-nitrophenyl-2-dichloroacetamido-3-hydroxypro-poxyphosphazotrichloroacetyl]						soluble.in water, alcohols, acetone,--benzene, toluene		100%	98%	
COP(=O)(OC)OC=C(Cl)Cl [Known nematocidal preparation, 0,0-dimethyl-0-/2,2-dichlorovinyl/phosphate]			88.1%				76%			
CNC(=S)S [carbathion, sodium N-methyldithiocarbamate dihydrate]				60%	80%			60%	59%	
